Reference: ChEMBL document CHEMBL1131059, “Synthesis and biological activity of a new series of N6-arylcarbamoyl, 2-(Ar)alkynyl-N6-arylcarbamoyl, and N6-carboxamido derivatives of adenosine-5'-N-ethyluronamide as A1 and A3 adenosine receptor agonists” (J Med Chem, 1998)

How the values were obtained:
Adenosine receptor A2a = Adenosine receptor A2a (Rattus norvegicus, UniProt P30543)
Description: Binding affinity against adenosine A2A receptor in rat striatal membranes using [3H]-CGS- 21680.

Adenosine receptor A1 = target: T1, Adenosine receptor A1 (Rattus norvegicus, UniProt P25099)
T1 sequence (P25099 whole entry): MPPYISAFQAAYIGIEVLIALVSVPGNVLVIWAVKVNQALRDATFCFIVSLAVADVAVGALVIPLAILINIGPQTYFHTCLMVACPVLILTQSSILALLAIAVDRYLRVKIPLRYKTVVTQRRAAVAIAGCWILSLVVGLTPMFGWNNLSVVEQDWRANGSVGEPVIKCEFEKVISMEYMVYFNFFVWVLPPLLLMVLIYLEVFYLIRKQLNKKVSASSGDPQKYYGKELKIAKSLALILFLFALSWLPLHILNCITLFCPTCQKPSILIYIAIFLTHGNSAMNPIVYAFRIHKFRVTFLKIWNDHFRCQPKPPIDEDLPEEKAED
Description: Binding affinity against adenosine A1 receptor in rat brain membranes using [3H]R-PIA.

[1] = target: Adenosine receptors; A1 & A3 (Rattus norvegicus) (UniProt P25099+P28647); assay: Selectivity for binding affinity towards A1 adenosine receptor in rat brain membrane and rat A3 receptor expressed in CHO cells.; assay type: cell-based
Adenosine receptor A3 = target: T2, Adenosine receptor A3 (Rattus norvegicus, UniProt P28647); assay: biochemical
T2 sequence (P28647 whole entry): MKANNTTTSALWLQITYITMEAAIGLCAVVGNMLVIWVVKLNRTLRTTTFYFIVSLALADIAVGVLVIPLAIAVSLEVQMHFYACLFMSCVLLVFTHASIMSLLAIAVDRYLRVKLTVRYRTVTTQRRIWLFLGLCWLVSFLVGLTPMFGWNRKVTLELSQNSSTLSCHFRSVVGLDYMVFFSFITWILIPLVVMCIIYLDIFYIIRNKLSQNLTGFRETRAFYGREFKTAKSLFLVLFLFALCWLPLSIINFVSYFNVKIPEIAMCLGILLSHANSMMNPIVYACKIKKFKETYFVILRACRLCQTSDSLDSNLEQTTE
Description: Binding affinity against rat adenosine A3 receptor expressed in CHO cells using [125I]-.

[2] = target: Adenosine receptor A2a (Rattus norvegicus) (UniProt P30543); assay: Binding affinity against Adenosine A2A receptor of rat striatal membranes using [3H]- CGS 21680 at 10E-4; details: concentration not given here
Chain of Adenosine receptor A2a (Rattus norvegicus) (P30543 whole entry): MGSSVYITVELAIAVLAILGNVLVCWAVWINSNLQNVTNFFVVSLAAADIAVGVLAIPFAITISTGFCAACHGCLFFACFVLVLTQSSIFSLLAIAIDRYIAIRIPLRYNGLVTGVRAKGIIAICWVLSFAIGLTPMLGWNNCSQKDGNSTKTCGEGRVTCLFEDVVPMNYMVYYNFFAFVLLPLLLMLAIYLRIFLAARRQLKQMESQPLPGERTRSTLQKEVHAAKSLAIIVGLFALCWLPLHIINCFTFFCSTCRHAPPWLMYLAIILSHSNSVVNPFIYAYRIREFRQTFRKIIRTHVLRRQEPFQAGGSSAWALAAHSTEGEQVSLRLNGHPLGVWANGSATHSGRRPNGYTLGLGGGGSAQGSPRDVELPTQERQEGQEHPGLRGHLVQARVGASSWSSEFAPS

Chain of Adenosine receptor A2a (P30543 whole entry): as above

CCNC(=O)[C@H]1O[C@@H](n2cnc3c(NC(=O)NCCc4ccccc4)ncnc32)[C@H](O)[C@@H]1O
Ki (Adenosine receptor A2a): 2650 nM | Ki (Adenosine receptor A1): 129 nM | Ratio [1]: 0.86 | Ki (Adenosine receptor A3): 149 nM

CCNC(=O)[C@H]1O[C@@H](n2cnc3c(NC(=O)c4ccccc4)ncnc32)[C@H](O)[C@@H]1O
Ratio [1]: 0.3

CCNC(=O)[C@H]1O[C@@H](n2cnc3c(NC(=O)Nc4ccc(OC)cc4)nc(Cl)nc32)[C@H](O)[C@@H]1O
Ki (Adenosine receptor A2a): 59 nM | Ki (Adenosine receptor A1): 22 nM | Ratio [1]: 1.2 | Ki (Adenosine receptor A3): 17.1 nM

CCNC(=O)[C@H]1O[C@@H](n2cnc3c(NC(=O)Nc4ccc(NS(=O)(=O)c5ccccn5)cc4)ncnc32)[C@H](O)[C@@H]1O
Ki (Adenosine receptor A2a): 740 nM | Ki (Adenosine receptor A1): 292 nM | Ratio [1]: 5.4 | Ki (Adenosine receptor A3): 54.1 nM

CCNC(=O)[C@H]1O[C@@H](n2cnc3c(NC(=O)c4ccc(OC)cc4)ncnc32)[C@H](O)[C@@H]1O
Ratio [1]: 0.1

CCNC(=O)[C@H]1O[C@@H](n2cnc3c(NC(=O)Nc4ccc(OC)cc4)nc(C#Cc4ccccc4)nc32)[C@H](O)[C@@H]1O
inhibition [2]: 29% | Ki (Adenosine receptor A1): 4790 nM | Ratio [1]: 31 | Ki (Adenosine receptor A3): 154 nM

CCNC(=O)[C@H]1O[C@@H](n2cnc3c(NC(=O)NCc4ccco4)ncnc32)[C@H](O)[C@@H]1O
Ki (Adenosine receptor A2a): 1860 nM | Ki (Adenosine receptor A1): 419 nM | Ratio [1]: 0.58 | Ki (Adenosine receptor A3): 713 nM

CCNC(=O)[C@H]1O[C@@H](n2cnc3c(NC(=O)Nc4ccc(OC)cc4)nc(C#CCCCc4ccccc4)nc32)[C@H](O)[C@@H]1O
Ki (Adenosine receptor A2a): 1670 nM | Ratio [1]: 160 | Ki (Adenosine receptor A3): 89.5 nM

CCNC(=O)[C@H]1O[C@@H](n2cnc3c(NC(=O)Nc4cccc(Cl)c4)nc(C#Cc4ccccc4)nc32)[C@H](O)[C@@H]1O
Ki (Adenosine receptor A2a): 48700 nM | Ki (Adenosine receptor A1): 1330 nM | Ratio [1]: 2.1 | Ki (Adenosine receptor A3): 611 nM

CCNC(=O)[C@H]1O[C@@H](n2cnc3c(NC(=O)Nc4cccc(Cl)c4)nc(Cl)nc32)[C@H](O)[C@@H]1O
Ki (Adenosine receptor A2a): 557 nM | Ki (Adenosine receptor A1): 90 nM | Ratio [1]: 1.2 | Ki (Adenosine receptor A3): 77.6 nM

CCCOc1ccc(NC(=O)Nc2ncnc3c2ncn3C2O[C@H](C(=O)NCC)[C@@H](O)[C@H]2O)cc1 (stereo partly specified)
Ki (Adenosine receptor A2a): 255 nM | Ki (Adenosine receptor A1): 247 nM | Ratio [1]: 2.3 | Ki (Adenosine receptor A3): 107 nM

CCNC(=O)[C@H]1O[C@@H](n2cnc3c(NC(=O)NCCc4ccc(OC)c(OC)c4)ncnc32)[C@H](O)[C@@H]1O
Ki (Adenosine receptor A2a): 1570 nM | Ki (Adenosine receptor A1): 1770 nM | Ratio [1]: 4.3 | Ki (Adenosine receptor A3): 411 nM

CCNC(=O)[C@H]1O[C@@H](n2cnc3c(NC(=O)c4ccccc4Cl)ncnc32)[C@H](O)[C@@H]1O
Ki (Adenosine receptor A2a): 1960 nM | Ki (Adenosine receptor A1): 1170 nM | Ratio [1]: 1.6 | Ki (Adenosine receptor A3): 754 nM

CCNC(=O)[C@H]1O[C@@H](n2cnc3c(NC(=O)Nc4cc(C)on4)ncnc32)[C@H](O)[C@@H]1O
Ratio [1]: 0.27

CCNC(=O)[C@H]1O[C@@H](n2cnc3c(NC(=O)c4ccc(-c5ccccc5)cc4)ncnc32)[C@H](O)[C@@H]1O
Ratio [1]: 0.006

CCNC(=O)[C@H]1O[C@@H](n2cnc3c(NC(=O)Nc4ccc(OC)cc4)nc(I)nc32)[C@H](O)[C@@H]1O
Ki (Adenosine receptor A2a): 260 nM | Ki (Adenosine receptor A1): 29.4 nM | Ratio [1]: 0.12 | Ki (Adenosine receptor A3): 251 nM

CCNC(=O)[C@H]1O[C@@H](n2cnc3c(NC(=O)NCc4ccccc4)ncnc32)[C@H](O)[C@@H]1O
Ratio [1]: 4.5

CCNC(=O)[C@H]1O[C@@H](n2cnc3c(NC(=O)Nc4cccc(Cl)c4)nc(I)nc32)[C@H](O)[C@@H]1O
Ki (Adenosine receptor A2a): 10600 nM | Ki (Adenosine receptor A1): 103 nM | Ratio [1]: 0.33 | Ki (Adenosine receptor A3): 315 nM

CCNC(=O)[C@H]1O[C@@H](n2cnc3c(NC(=O)Nc4ccc(C(C)=O)cc4)ncnc32)[C@H](O)[C@@H]1O
Ratio [1]: 3.5

CCNC(=O)[C@H]1O[C@@H](n2cnc3c(NC(=O)N[C@H](C)c4ccccc4)ncnc32)[C@H](O)[C@@H]1O
Ratio [1]: 27

CCNC(=O)[C@H]1O[C@@H](n2cnc3c(NC(=O)Nc4ccc(OC)cc4)nc(C#CC(O)c4ccccc4)nc32)[C@H](O)[C@@H]1O (stereo partly specified)
inhibition [2]: 12% | Ki (Adenosine receptor A1): 75.1 nM | Ratio [1]: 0.23 | Ki (Adenosine receptor A3): 324 nM

CCNC(=O)[C@H]1O[C@@H](n2cnc3c(NC(=O)Nc4nncs4)ncnc32)[C@H](O)[C@@H]1O
Ratio [1]: 0.037

CCNC(=O)[C@H]1O[C@@H](n2cnc3c(NC(=O)N[C@@H](C)c4ccccc4)ncnc32)[C@H](O)[C@@H]1O
Ratio [1]: 1.7

CCNC(=O)[C@H]1O[C@@H](n2cnc3c(NC(=O)Nc4cccc(Cl)c4)nc(C#CC(O)c4ccccc4)nc32)[C@H](O)[C@@H]1O (stereo partly specified)
inhibition [2]: 12% | Ki (Adenosine receptor A1): 814 nM | Ratio [1]: 1.2 | Ki (Adenosine receptor A3): 696 nM

CCNC(=O)[C@H]1O[C@@H](n2cnc3c(NC(=O)Nc4ccc(S(N)(=O)=O)cc4)ncnc32)[C@H](O)[C@@H]1O
Ratio [1]: 47

CCNC(=O)[C@H]1O[C@@H](n2cnc3c(NC(=O)Cc4ccc(Cl)cc4Cl)ncnc32)[C@H](O)[C@@H]1O
Ratio [1]: 0.095

CCNC(=O)[C@H]1O[C@@H](n2cnc3c(NC(=O)Nc4ccc(NS(=O)(=O)c5ncccn5)cc4)ncnc32)[C@H](O)[C@@H]1O
Ki (Adenosine receptor A2a): 16.8 nM | Ki (Adenosine receptor A1): 725 nM | Ratio [1]: 1.7 | Ki (Adenosine receptor A3): 405 nM

CCCCC#Cc1nc(NC(=O)Nc2cccc(Cl)c2)c2ncn([C@@H]3O[C@H](C(=O)NCC)[C@@H](O)[C@H]3O)c2n1
Ki (Adenosine receptor A2a): 7130 nM | Ki (Adenosine receptor A1): 2040 nM | Ratio [1]: 3.5 | Ki (Adenosine receptor A3): 581 nM

CCNC(=O)[C@H]1O[C@@H](n2cnc3c(N(C(=O)Nc4ccc(Cl)cn4)C(=O)Nc4ccc(Cl)cn4)ncnc32)[C@H](O)[C@@H]1O
Ratio [1]: 0.13

CCNC(=O)[C@H]1OC(n2cnc3c(NC(=O)Nc4ccc(NS(=O)(=O)c5cc(C)on5)cc4)ncnc32)[C@H](O)[C@@H]1O (stereo partly specified)
Ki (Adenosine receptor A2a): 977 nM | Ki (Adenosine receptor A1): 901 nM | Ratio [1]: 5.8 | Ki (Adenosine receptor A3): 155 nM

CCCCC#Cc1nc(NC(=O)Nc2ccc(OC)cc2)c2ncn([C@@H]3O[C@H](C(=O)NCC)[C@@H](O)[C@H]3O)c2n1
Ki (Adenosine receptor A2a): 2330 nM | Ki (Adenosine receptor A1): 428 nM | Ratio [1]: 2 | Ki (Adenosine receptor A3): 211 nM

CNC(=O)[C@H]1OC(n2cnc3c(NCc4cccc(I)c4Cl)ncnc32)[C@H](O)[C@@H]1O (stereo partly specified)
Ki (Adenosine receptor A2a): 470 nM | Ki (Adenosine receptor A1): 820 nM | Ratio [1]: 2500 | Ki (Adenosine receptor A3): 0.33 nM
